# US20250019385A1, “SPIROCYCLIC ANNULATED 2-AMINO-3-CYANO THIOPHENES AND DERIVATIVES FOR THE TREATMENT OF CANCER” (Boehringer Ingelheim International GmbH, priority 2023, published 2025)
# Assays:
# [1] = target: KRAS (G12D)::SOS1 protein-protein interaction (Homo sapiens (Human), UniProt P01116, G12D); test: KRAS::SOS1 AlphaScreen binding assay (KRAS G12D); details: GDP
# Source text: This assay can be used to examine the potency with which compounds according to the invention binding to (mutated) KRAS inhibit the protein-protein interaction between SOS1 and (mutated) KRAS e.g. KRAS G12C, KRAS G12D. […] Low IC50 values in this assay setting are indicative of strong inhibition of protein-protein interaction between SOS1 and KRAS:
# These assays measure the inhibitory effect of compounds on KRAS mutant protein-protein interactions using the Alpha Screen technology by Perkin Elmer.
# The following (mutant) enzyme forms of KRAS and interacting proteins are used in these assays at the given concentrations:
# KRAS (G12D) 1-169, N-terminal 6His-tag, C-terminal avi-tag (Xtal BioStructures, Inc.); final assay concentration 10 nM and SOS1 564-1049, N-terminal 229 GST-tag, TEV cleavage site (Viva Biotech Ltd); final assay concentration 5 nM;
# Test compounds dissolved in DMSO are dispensed onto assay plates (Proxiplate 384 PLUS, white, PerkinElmer; 6008289) using an Access Labcyte Workstation with the Labcyte Echo 55x. For the chosen highest assay concentration of 100 μM, 150 nL of compound solution are transferred from a 10 mM DMSO compound stock solution. A series of eleven fivefold dilutions per compound are transferred to the assay plate, compound dilutions are tested in duplicates. DMSO are added as backfill to a total volume of 150 nL.
# The assays run on a fully automated robotic system in a darkened room below 100 Lux. To 150 nl of compound dilution 10 μl of a mix including KRAS mutant protein, SOS1 (final assay concentrations see above) and GDP nucleotide (Sigma G7127; final assay concentration 10 μM) in assay buffer (1×PBS, 0.1% BSA, 0.05% Tween 20) are added into columns 1-24.
# After 30 minutes incubation time 5 μl of Alpha Screen bead mix in assay buffer are added into columns 1-23. Bead mix consists of AlphaLISA Glutathione Acceptor Beads (PerkinElmer, Cat No AL109) and AlphaScreen Streptavidin Donor Beads (PerkinElmer Cat No 6760002) in assay buffer at a final assay concentration of 10 μg/mL each.
# Plates are kept at room temperature in a darkened incubator. After an additional 60 minutes incubation time the signal is measured in a PerkinElmer Envision HTS Multilabel Reader using the AlphaScreen specs from PerkinElmer.
# Each plate contains up to 16 wells of a negative control depending on the dilution procedure (platewise or serial) (DMSO instead of test compound; with KRAS mutant::SOS1 GOP mix and bead mix; column 23) and 16 wells of a positive control (DMSO instead of test compound; with KRAS mutant::SOS1 GOP mix w/o bead mix; column 24).
# As internal control known inhibitors of KRAS mutant::SOS1 interaction can be measured on each compound plate.
# IC50 values are calculated and analyzed with Boehringer Ingelheim's MEGALAB C50 application using a 4 parametric logistic model.
# Tables of example compounds disclosed herein contain IC50 values determined using the above assays (see Table 43).
# Ba/F3 cells KRAS G12V = test: Ba/F3 proliferation assay (KRAS G12V); assay type: cell-based; details: Mus musculus, BaF3, 72 h, AlamarBlue viability
# Procedure: Ba/F3 cells are ordered from DSMZ (ACC300, Lot17) and grown in RPMI-1640 (ATCC 30-2001)+10% FCS+10 ng/mL IL-3 at 37° C. in 5% […] atmosphere. Plasmids containing KRASG12 mutants (i.e. […], G12C, G12V) are obtained from GeneScript. To generate KRASG12-dependent Ba/F3 models, Ba/F3 cells are transduced with retroviruses containing vectors that harbor KRASG12 isoforms. Platinum-E cells (Cell Biolabs) are used for retrovirus packaging. Retrovirus is added to Ba/F3 cells. To ensure infection, 4 μg/mL polybrene is added and cells are spinfected. Infection efficiency is confirmed by measuring GFP-positive cells using a cell analyzer. Cells with an infection efficiency of 10% to 20% are further cultivated and puromycin selection with 1 μg/mL is initiated. As a control, parental Ba/F3 cells are used to show selection status. Selection is considered successful when parental Ba/F3 cells cultures died. To evaluate the transforming potential of KRASG12 mutations, the growth medium is no longer supplemented with IL-3. Ba/F3 cells harboring the empty vector are used as a control. Approximately ten days before conducting the experiments, puromycin is left out.
# For proliferation assays, Ba/F3 cells are seeded into 384-well plates at 1.5×1 (M cells/60 μL in growth media (RPMI-1640+10% FCS). Compounds (10 mM stock in DMSO) are added at logarithmic dose series using the ECHO acoustic liquid handler system (Beckman Coulter), normalizing for added DMSO and including DMSO controls. All compound treatments are performed in technical duplicates. For the TO time point measurement, untreated cells are analyzed at the time of compound addition. Treated cells are incubated for 72 h at 37° C. with 5% CO2 and cell viability is measured in the PerkinElmer Envision Multimode Reader using AlamarBlue™ (ThermoFisher) viability stain. Viability (stated as percent of control) is defined as relative fluorescence units RFU of each well divided by the RFU of cells in DMSO controls. IC50 values are determined from viability measurements by non-linear regression using a four-parameter model.
# LOVO cells = test: LOVO CTG proliferation assay (120 h) (CRC, G13D); assay type: cell-based; details: Homo sapiens
# Procedure: LOVO cells (ATCC No. CCL-229) are dispensed into black 384-well plates, flat and clear bottom (Greiner, PNr. 781091) at a density of 1000 cells per well in 60 μl DMEM (Sigma D6429)+10% FCS (fetal calf serum, HyClone, SH30084.03). Cells are incubated overnight at 37° C. in a humidified tissue culture incubator at 5% CO2. Compounds (10 mM stock in DMSO) are added at logarithmic dose series using the ECHO acoustic liquid handler system (Beckman Coulter), normalizing for added DMSO and including DMSO controls. All compound treatments are performed in technical duplicates. For the TO time point measurement, untreated cells are analyzed at the time of compound addition. Plates are incubated for 120 h, and cell viability is measured using CellTiter-Glo luminescent cell viability reagent (Promega product code G7570). Viability (stated as percent of control) is defined as relative luminescence units RLU of each well divided by the RLU of cells in DMSO controls. IC50 values are determined from viability measurements by non-linear regression using a four-parameter model.
# IC50 values of representative compounds according to the invention measured with these assays in the indicated cell lines are presented in Table 46.
# Sequence of KRAS (G12D)::SOS1 protein-protein interaction (P01116 other isoform, or with tags, fused parts or gaps G12D): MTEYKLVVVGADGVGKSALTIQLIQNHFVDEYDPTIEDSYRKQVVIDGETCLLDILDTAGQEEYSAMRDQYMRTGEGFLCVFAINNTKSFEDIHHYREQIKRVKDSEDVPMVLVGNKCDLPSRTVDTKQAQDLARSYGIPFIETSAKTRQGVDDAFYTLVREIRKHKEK
SMILES,IC50 [1],IC50 (Ba/F3 cells KRAS G12V),IC50 (LOVO cells)
C[C@H](Oc1nc(-c2onc3c2CCC[C@@]32CCCc3sc(N)c(C#N)c32)nc2c1n(C)c(=O)n2[C@@H]1CCOC1)[C@@H]1C[C@@H]2C[C@@H]2N1C [I-28],4 nM,12 nM,105 nM
CO[C@H]1CCN(C)[C@@H]1[C@H](C)Oc1nc(-c2onc3c2CCC[C@@]32CCCc3sc(N)c(C#N)c32)nc2c1n(C)c(=O)n2[C@@H]1CCCOC1 [I-6],2 nM,2 nM,3 nM
C[C@H](Oc1nc(-c2onc3c2CCC[C@@]32CCCc3sc(N)c(C#N)c32)nc2c1n(C)c(=O)n2[C@@H]1CC2CCC1O2)[C@@H]1CCCN1C (stereo partly drawn) [I-18],8 nM,69 nM,49 nM
C[C@H](Oc1nc(-c2onc3c2CCC[C@@]32CCCc3sc(N)c(C#N)c32)nc2c1n(C)c(=O)n2[C@@H]1CCOC1)[C@@H]1C[C@@H](F)CN1C [I-22],2 nM,4 nM,43 nM
CCn1c(=O)n([C@@H]2CCCOC2)c2nc(-c3onc4c3CCC[C@@]43CCCc4sc(N)c(C#N)c43)nc(O[C@@H](C)[C@@H]3CCCN3C)c21 [I-30],2 nM,5 nM,7 nM
C[C@@H]1COC[C@H](n2c(=O)n(C)c3c(O[C@@H](C)[C@@H]4CCCN4C)nc(-c4onc5c4CCC[C@@]54CCCc5sc(N)c(C#N)c54)nc32)C1 [I-44],1 nM,2 nM,12 nM
C[C@H](Oc1nc(-c2onc3c2CCC[C@@]32CCCc3sc(N)c(C#N)c32)nc2c1n(C)c(=O)n2C12COC(C1)C2)[C@@H]1CCCN1C [I-15],2 nM,11 nM,7 nM
C[C@H](Oc1nc(-c2onc3c2CCC[C@@]32CCCc3sc(N)c(C#N)c32)nc2c1ncn2[C@@H]1CCOC1)[C@@H]1CCCN1C [I-38],2 nM,20 nM,114 nM
CO[C@H]1C[C@@H](n2c(=O)n(C)c3c(O[C@@H](C)[C@@H]4CCCN4C)nc(-c4onc5c4CCC[C@@]54CCCc5sc(N)c(C#N)c54)nc32)C1 [I-31],1 nM,23 nM,36 nM
C[C@H](Oc1nc(-c2onc3c2CCC[C@@]32CCCc3sc(N)c(C#N)c32)nc2c1cnn2[C@@H]1CCOC1)[C@@H]1CCCN1C [I-43],2 nM,18 nM,15 nM
CO[C@H]1CCN(C)[C@@H]1[C@H](C)Oc1nc(-c2onc3c2CCC[C@@]32CCCc3sc(N)c(C#N)c32)nc2c1n(C)c(=O)n2[C@@H]1CCOC1 [I-23],1 nM,2 nM,10 nM
C[C@H](Oc1nc(-c2noc3c2CCC[C@@]32CCCc3sc(N)c(C#N)c32)nc2c1CCC21CCOC1)[C@@H]1CCCN1C (stereo partly drawn) [II-18],2 nM,13 nM,141 nM

# The remaining molecules from weak to strong by IC50 [1], led by results:
IC50 [1],IC50 (Ba/F3 cells KRAS G12V),IC50 (LOVO cells),SMILES
1 nM,1 nM,71 nM,C[C@H](Oc1nc(-c2noc3c2CCC[C@@]32CCCc3sc(N)c(C#N)c32)nc2c1CN(C1COC1)C[C@]21CCOC1)[C@@H]1CCCN1C [II-12]
1 nM,2 nM,6 nM,CO[C@@H]1C[C@@H]([C@H](C)Oc2nc(-c3onc4c3CCC[C@@]43CCCc4sc(N)c(C#N)c43)nc3c2n(C)c(=O)n3[C@@H]2CCCOC2)N(C)C1 [I-14]
1 nM,1 nM,8 nM,CO[C@H]1CCN(C)[C@@H]1[C@H](C)Oc1nc(-c2noc3c2CCC[C@@]32CCCc3sc(N)c(C#N)c32)nc2c1CN(C1COC1)C[C@]21CCOC1 [II-13]
1 nM,8 nM,5 nM,COCCn1c(=O)n([C@@H]2CCOC2)c2nc(-c3onc4c3CCC[C@@]43CCCc4sc(N)c(C#N)c43)nc(O[C@@H](C)[C@@H]3CCCN3C)c21 [I-1]
1 nM,1 nM,4 nM,C[C@H](Oc1nc(-c2onc3c2CCC[C@@]32CCCc3sc(N)c(C#N)c32)nc2c1n(C)c(=O)n2[C@@]12COC[C@@H]1C2)[C@@H]1CCCN1C [I-29]
